Key:
Assay in all cases: BMP activity luciferase reporter assay (BRE-luciferase, ID1 promoter) in C2C12 cells
[1] = tested on: human BMP4; assay type: cell-based, mouse; settings: VHH 500 ng/ml; LDN 0.5 μM; DMH1 0.2 μM
Experimental: One of the most studied BMP target genes is the Inhibitor of Differentiation 1 (ID1). This is an immediate early gene that is activated by binding of the phosphorylated SMADs to its promoter region (López-Rovira et al., 2002). Thus, we employed the BMP-responsive C2C12 cells, which are stably transfected with the BRE-luciferase vector containing the BMP-Responsive-Element (the mouse ID1 promoter) cloned into the pGL3 luciferase vector (Zilberberg 2007). […] C2C12 cells were treated with the different BMPs with or without our VHHs or human Noggin at a concentration of 5 μg/ml. Luciferase activity was measured after 16 hours incubation. Most of the transcriptional data is in concordance with the results obtained with the phosphorylation of SMAD1/5/8.
C2C12 cells were plated in 96-well plates at 5×10^3 cells/well and cells were allowed to attach overnight. 100 μl of DMEM with 0.1% BSA were added in each well. VHH antibodies and human Fc-Noggin at the indicated concentrations were added at the same time. Wells with unstimulated cells were added as controls. Cells were treated in triplicate with the BMPs at the indicated concentrations for 16 hours. Luciferase activity was measured by adding 100 μl of luciferase substrate solution from the Bright-Glo™ Luciferase Assay System (Promega Benelux, Leiden, The Netherlands). After 3 minutes of incubation, luciferase activity was measured with Synergy HT Multi-Mode Microplate Reader (Biotek, Winooski, Vt., United States). Luciferase values were normalized to background activity (activity of wells with no cells) and represented as ratio to the activity of BMP-stimulated cells.
To evaluate the extent of this increase in potency, the IC50 of the different VHHs were determined in a dose-dependent inhibition assay in C2C12 cells (FIG. 25). C2C12 cells were plated in 96-well plates at 5×10^3 cells/well and cells were allowed to attach overnight 100 μl of DMEM with 0.1% BSA were added in each well. VHH antibodies were added at the indicated concentrations at the same time as 5 ng/ml BMP4 (FIG. 25A-B, D) or 50 ng/ml of BMP2 (FIG. 25C,D). Luciferase activity was measured after 16 hours. Values are represented as ratio to the activity of BMP-stimulated cells. […] However, its effects were more striking for BMP2 rather than BMP4 inhibition. […] The IC50 values for BMP4 inhibition observed in our VHHs are considerably lower than those observed for anti-BMP4 commercially available from R&D (Katagiri et al 1994) and those described in WO_2008/030611.
(§1) C2C12 cells were cultured in 96-well plates at 5×10^3 cells/well. After overnight attachment cells were stimulated with 10 ng/ml hBMP4 (Cat No. 314-BP-020; R&D Systems), 50 ng/ml hBMP2 (Cat No. 355-BM-010; R&D Systems), 200 ng/ml hBMP5 (Cat No. 615-BMC-020; R&D Systems), 50 ng/ml hBMP6 (Cat No. 506-BP-020; R&D Systems), 200 ng/ml hBMP7 (Cat No. 354-BP-010; R&D Systems), 25 ng/ml hBMP9 (Cat No. 3209-BP-010; R&D Systems), 25 ng/ml hBMP10 (Cat No. 2926-BP-025; R&D Systems), 50 ng/ml hBMP12 (Cat No. 779-G7-010; R&D Systems) and with or without VHH antibodies: C4C4 and C8C8 at 500 ng/ml; natural antagonist: mNoggin (Cat No. 1967-NG-025; R&D Systems), hNoggin (Cat No. 6057-NG; R&D Systems) and mGremlin (cat#956-GR-050; R&D Systems) at 500 ng/ml; chemical antagonist: 0.5 μM LDN-193189 (Cat No. 11802; Cayman Chemical) and 0.2 μM DMH1 (Cat No. 57146; Selleckchem).
VHH efficacy was evaluated by stimulating cells with 10 ng/ml of hBMP4 and 50 ng/ml of hBMP2, with and without increase concentrations (from 0.1-10 μg/ml) of VHH and anti-BMP4 antibodies: clone 66119, clone 3H2, clone M912262, clone PA354-16.1.1, Clone EPR6211, and anti-BMP4 (ab39973). […] Unstimulated cells were used as controls and wells with no cells used to normalize the background activity. […]

[2] = tested on: BMP9; assay type: cell-based, mouse; settings: 25 ng/ml hBMP9, 16 h; LDN 0.5 μM; DMH1 0.2 μM
Experimental: (§2) C2C12 cells were plated in 96-well plates when they reached confluency, cells were treated in triplicate with 25 ng/ml of BMP9, 50 ng/ml of BMP10 or 50 ng/ml of BMP12 (all from R&D Systems), for 16 hours. VHHs or Noggin were added at a concentration of 5 ug/ml. C2C12 cells or HEK293 were plated on 12-well plates and starved for 5 hours, before stimulation with 2 ng/ml of TGF-β (R&D Systems) or 100 ng/ml Activin-A (R&D Systems), respectively. VHHs at the indicated concentrations were added at the same time. After 1 hour cells were lysed, and protein isolation and SDS-PAGE separation were performed as described previously. For protein detection the following antibodies were used: antiphospho-SMAD2 at 1:1000 (Cell Signaling).
as §1

[3] = tested on: BMP10; assay type: cell-based, human; settings: 25 ng/ml hBMP10, 16 h; LDN 0.5 μM; DMH1 0.2 μM
Experimental: as §2
C2C12 cells were cultured in 96-well plates at 5×10^3 cells/well. […]

Row | SMILES | specificity / selectivity across BMP2, 4, 5, 6, 7, 9, 10, 12 [1] | inhibition of BMP-9-derived signals, comparison of inhibitors [2] | inhibition of BMP-10-derived signals, comparison of inhibitors [3]
1 | CC(C)Oc1ccc(-c2cnc3c(-c4ccnc5ccccc45)cnn3c2)cc1 [DMH1] | even less selective than Noggin | shown to inhibit | shown to inhibit
2 | c1ccc2c(-c3cnn4cc(-c5ccc(N6CCNCC6)cc5)cnc34)ccnc2c1 [LDN, LDN-193189] | even less selective than Noggin | shown to inhibit | shown to inhibit

From US10280218B2, “Antibodies binding to BMP4, and uses thereof” (ACADEMISCH MEDISCH CENTRUM, priority 2014, dated 2019)
